The subject of assay [1] is Helicobacter pylori. The conditions noted are these: infected mice, fed 30 mg/kg amoxicillin once daily for 10 days.
Text: Small black mice were fed with a broth containing 1.0×10^9 CFU/ml Helicobacter pylori continually for 6 times in 2 weeks, to establish a Helicobacter pylori-infected animal model. The mice were fasted one night before fed with Helicobacter pylori, to decrease the mucus in the stomach, and thereby, increase the probability of infection. Then, the Helicobacter pylori-infected mice (6 mice each group) were fed with (a) the nano medicinal carrier obtained from example 1 (2) (control group); (b) 30 mg/kg amoxicillin; and (c) nano medicinal carrier (the concentration of amoxicillin, 30 mg/kg) obtained from example 1 (4) once daily for 10 days. Then, the mice were sacrificed, and the tissue in the stomach was taken off to conduct the colony number experiment.
The subject of assay [2] is Helicobacter pylori. The conditions noted are these: stomach tissue of infected mice, 37° C. for 12 hours.
Text: Small black mice were fed with a broth containing 1.0×10^9 CFU/ml Helicobacter pylori continually for 6 times in 2 weeks, to establish a Helicobacter pylori-infected animal model. The mice were fasted one night before fed with Helicobacter pylori, to decrease the mucus in the stomach, and thereby, increase the probability of infection. Then, the Helicobacter pylori-infected mice (6 mice each group) were fed with (a) the nano medicinal carrier obtained from example 1 (2) (control group); (b) 30 mg/kg amoxicillin; and (c) nano medicinal carrier (the concentration of amoxicillin, 30 mg/kg) obtained from example 1 (4) once daily for 10 days.
Campylobacter-like organism assay (CLO assay) was conducted to evaluate the effect of nano medicinal carrier on treating the Helicobacter pylori-infected mice. The internal side of the stomach tissue of the Helicobacter pylori-infected mice was touch with CLO gel and compressed, the tissue was incubated at 37° C. for 12 hours, and the variation of the color of the CLO gel was observed. The CLO gel without Helicobacter pylori (contacted with deionized water) is a yellow color. The CLO gel with a little of Helicobacter pylori is a yellow-orange color. The CLO gel with a lot of Helicobacter pylori is a red color. A darker color represents a higher amount of Helicobacter pylori.

Structures are written as SMILES.

For `CC1(C)S[C@@H]2[C@H](NC(=O)[C@H](N)c3ccc(O)cc3)C(=O)N2[C@H]1C(=O)O` [amoxicillin solution, amoxicillin], the “The colony number of Helicobacter pylori in the stomach tissue of the mice” value in the assay with Helicobacter pylori [1] is reported as 316.9 ± 30.5. In addition, the “color of the CLO gel (darker color = higher amount of Helicobacter pylori)” value in the assay with Helicobacter pylori [2] was “red color”.

Source of the values: patent publication US8790695B2, “Medicinal carriers, and preparation method and uses thereof” (China Medical University, priority 2012, dated 2014).
